Laboratory results taken from patent US20130096370A1, “COMPOSITIONS AND SYSTEMS FOR THE REGULATION OF GENES” (priority 2002, published 2013).

Test system: p53 in MCF-7 breast cancer cells
Experiment: Down modulation of endogenous p53 in MCF-7 cells by dox-inducible siRNA lentivectors (Western blot)
Type: cell-based
Conditions: dually transduced MCF-7 cells, 5 days in dox, FIG. 7B
Experimental: To analyze the regulation of GFP a Hela cell clone carrying a single copy of the WPXLGFP provirus (Hela-GFP) was used. For transduction, Hela-GFP, MCF-7 or Hela cells were plated on 24-well plate (20×10^4 cells/well) and after 16 hrs medium containing recombinant lentivectors was added. Following 16 hrs of incubation the cells were washed, split and doxycycline was added to half of the transduced cells at a final concentration of 5 μg/ml. Five days later the cells were harvested and analyzed by FACS.
Cell extracts were prepared in RIPA lysis buffer (25 mM Tris pH 7.5, 1% Triton X-100, 0.5% sodium deoxycholate, 5 mM EDTA, 150 mM NaCl) containing a cocktail of protease inhibitors (Sigma). The protein samples (10 μg) were separated on 4-20% gradient PAGE-SDS gel, electroblotted to polyvinylidene fluoride membranes (Perkin Elmer) and exposed to antibodies against p53 (Santa Cruz Biotechnology), Lamin A/C (Santa Cruz Biotechnology), GFP (Clontech) and actin (Calbiochem). Antibodies conjugated with horseradish peroxidase (Amersham) and enhanced chemiluminescence (ECL; Amersham) was used for detection.

## C[C@H]1c2cccc(O)c2C(=O)C2=C(O)[C@]3(O)C(=O)C(C(N)=O)=C(O)[C@@H](N(C)C)[C@@H]3[C@@H](O)[C@@H]21 [doxycycline]
  dox concentration at which full-blown p53 suppression was achieved: 0.25 µg/mL
  dox concentration at which p53 downregulation was already apparent: 0.004 µg/mL
